What was measured:
D(1A) dopamine receptor [1] = molecular target: T1, D(1A) dopamine receptor (Homo sapiens, UniProt P21728); assay: Inhibition of D1 dopamine receptor in HEK 293 cells by intracellular calcium assay; assay type: functional, cell-based, HEK293
D(1A) dopamine receptor [2] = molecular target: T1, D(1A) dopamine receptor; assay: Displacement of [3H]SCH 23390 from D1 dopamine receptor
D(2) dopamine receptor [3] = molecular target: T2, D(2) dopamine receptor (Homo sapiens, UniProt P14416); assay: Displacement of [3H]spiperone from D2L dopamine receptor
D(3) dopamine receptor = D(3) dopamine receptor (Homo sapiens, UniProt P35462); assay: Binding affinity to D3 dopamine receptor by radioligand binding assay
D(1B) dopamine receptor [4] = molecular target: T3, D(1B) dopamine receptor (Homo sapiens, UniProt P21918); assay: Inhibition of D5 dopamine receptor in HEK 293 cells by intracellular calcium assay; assay type: functional, cell-based, HEK293
D(2) dopamine receptor [5] = molecular target: T2, D(2) dopamine receptor; assay: Inhibition of D2L dopamine receptor in HEK 293 cells by intracellular calcium assay; assay type: functional, cell-based, HEK293
D(1B) dopamine receptor [6] = molecular target: T3, D(1B) dopamine receptor; assay: Binding affinity to D5 dopamine receptor by radioligand binding assay
D(4) dopamine receptor = molecular target: T4, D(4) dopamine receptor (Homo sapiens, UniProt P21917); assay: Binding affinity to D4 dopamine receptor by radioligand binding assay
T4 sequence (P21917 whole entry): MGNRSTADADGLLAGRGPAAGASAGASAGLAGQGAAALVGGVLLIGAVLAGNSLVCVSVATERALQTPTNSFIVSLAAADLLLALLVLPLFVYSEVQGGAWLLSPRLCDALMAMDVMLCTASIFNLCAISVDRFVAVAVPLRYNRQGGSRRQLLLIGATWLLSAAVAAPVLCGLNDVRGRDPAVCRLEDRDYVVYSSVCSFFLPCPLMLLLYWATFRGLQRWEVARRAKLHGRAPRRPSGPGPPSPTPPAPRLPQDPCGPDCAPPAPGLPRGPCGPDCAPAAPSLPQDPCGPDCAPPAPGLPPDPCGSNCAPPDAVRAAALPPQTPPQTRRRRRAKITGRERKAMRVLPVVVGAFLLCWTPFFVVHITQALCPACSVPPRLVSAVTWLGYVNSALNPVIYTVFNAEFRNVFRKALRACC

T1 sequence (P21728 whole entry): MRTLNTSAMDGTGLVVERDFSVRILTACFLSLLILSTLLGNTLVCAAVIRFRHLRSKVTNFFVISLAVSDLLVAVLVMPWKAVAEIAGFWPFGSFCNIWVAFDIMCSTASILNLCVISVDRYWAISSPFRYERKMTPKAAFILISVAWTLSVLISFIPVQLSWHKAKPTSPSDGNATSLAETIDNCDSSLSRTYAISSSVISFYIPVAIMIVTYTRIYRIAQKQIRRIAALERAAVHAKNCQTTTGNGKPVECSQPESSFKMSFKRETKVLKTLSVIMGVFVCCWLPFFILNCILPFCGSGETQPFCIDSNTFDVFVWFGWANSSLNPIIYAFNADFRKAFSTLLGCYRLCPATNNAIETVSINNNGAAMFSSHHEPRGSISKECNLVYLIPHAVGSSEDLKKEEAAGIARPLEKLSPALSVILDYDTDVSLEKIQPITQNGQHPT
T2 sequence (P14416 whole entry): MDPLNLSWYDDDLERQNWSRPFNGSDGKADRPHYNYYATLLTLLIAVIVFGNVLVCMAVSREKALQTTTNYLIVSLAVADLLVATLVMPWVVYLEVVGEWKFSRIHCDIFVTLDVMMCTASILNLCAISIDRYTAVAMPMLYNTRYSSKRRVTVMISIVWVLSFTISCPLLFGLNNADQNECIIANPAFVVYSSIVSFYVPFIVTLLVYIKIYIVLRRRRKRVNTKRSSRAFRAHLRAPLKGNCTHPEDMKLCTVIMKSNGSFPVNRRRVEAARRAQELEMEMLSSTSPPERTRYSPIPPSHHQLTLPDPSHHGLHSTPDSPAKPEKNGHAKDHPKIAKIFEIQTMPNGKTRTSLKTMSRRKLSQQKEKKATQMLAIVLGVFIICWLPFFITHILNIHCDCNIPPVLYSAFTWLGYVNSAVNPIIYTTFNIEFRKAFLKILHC
T3 sequence (P21918 whole entry): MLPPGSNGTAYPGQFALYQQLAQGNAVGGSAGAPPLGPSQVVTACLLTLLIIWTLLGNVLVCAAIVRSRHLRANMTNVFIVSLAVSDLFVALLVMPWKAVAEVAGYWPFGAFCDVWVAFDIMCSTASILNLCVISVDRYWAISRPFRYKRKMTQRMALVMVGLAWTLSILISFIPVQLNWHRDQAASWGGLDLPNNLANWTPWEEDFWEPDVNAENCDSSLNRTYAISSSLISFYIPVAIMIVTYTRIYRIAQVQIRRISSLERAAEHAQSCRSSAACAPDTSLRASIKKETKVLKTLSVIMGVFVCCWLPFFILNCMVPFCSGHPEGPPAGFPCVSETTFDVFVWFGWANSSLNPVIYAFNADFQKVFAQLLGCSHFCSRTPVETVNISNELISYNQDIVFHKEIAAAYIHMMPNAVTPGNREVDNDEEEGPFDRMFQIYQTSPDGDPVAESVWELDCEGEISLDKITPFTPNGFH
Chain of D(3) dopamine receptor (P35462 whole entry): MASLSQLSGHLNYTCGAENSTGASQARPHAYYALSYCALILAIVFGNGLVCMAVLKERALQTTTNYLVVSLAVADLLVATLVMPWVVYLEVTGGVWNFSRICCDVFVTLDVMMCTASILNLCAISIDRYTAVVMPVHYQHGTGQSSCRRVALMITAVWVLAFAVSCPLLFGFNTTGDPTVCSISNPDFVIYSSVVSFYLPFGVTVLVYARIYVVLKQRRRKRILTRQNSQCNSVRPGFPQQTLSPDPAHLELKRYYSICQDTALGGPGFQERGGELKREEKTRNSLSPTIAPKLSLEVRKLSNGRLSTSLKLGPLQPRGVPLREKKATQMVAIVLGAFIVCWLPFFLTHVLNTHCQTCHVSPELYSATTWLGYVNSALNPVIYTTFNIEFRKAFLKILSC

Ki (D(1A) dopamine receptor [1]) [nM] | Ki (D(1A) dopamine receptor [2]) [nM] | Ki (D(2) dopamine receptor [3]) [nM] | Ki (D(3) dopamine receptor) [nM] | Ki (D(1B) dopamine receptor [4]) [nM] | Ki (D(2) dopamine receptor [5]) [nM] | Ki (D(1B) dopamine receptor [6]) [nM] | Ki (D(4) dopamine receptor) [nM] | Structure (SMILES)
26.9 | 9.4 | 6.5 | 102 | 11.5 | 0.62 | 12.6 | – | COc1ccc2c(c1)CCN(C)CCc1cc(OC)ccc1C2
37.6 | 7.6 | 164 | 1830 | 54.6 | 39.9 | – | – | COc1cccc2c1Cc1ccccc1CCN(C)CC2
10.8 | 3.1 | 2 | 27.7 | 3.1 | 4.8 | 4.9 | – | CN1CCc2ccccc2Cc2cc(O)c(Cl)cc2CC1
567 | 82 | 62 | 151 | 1050 | 21.1 | – | – | COc1ccc2c(c1)Cc1ccccc1CCN(C)CC2
2.6 | 8.9 | 36.9 | 296 | 37.5 | 19 | 42.3 | – | CN1CCc2ccccc2Cc2cc(O)ccc2CC1
24.1 | 28.5 | 13 | 75.7 | 7.2 | 0.55 | – | – | COc1ccc2c(c1)CCN(C)CCc1ccccc1C2

Further lines, the compound ahead of its results:

Structure (SMILES) | Ki (D(1A) dopamine receptor [1]) [nM] | Ki (D(1A) dopamine receptor [2]) [nM] | Ki (D(2) dopamine receptor [3]) [nM] | Ki (D(3) dopamine receptor) [nM] | Ki (D(1B) dopamine receptor [4]) [nM] | Ki (D(2) dopamine receptor [5]) [nM] | Ki (D(1B) dopamine receptor [6]) [nM] | Ki (D(4) dopamine receptor) [nM]
CN1CCc2ccccc2Cc2cc(Cl)c(O)c(Cl)c2CC1 | 3.8 | 3.2 | 88 | – | 1.2 | 37.5 | – | –
CN1CCc2ccccc2Cc2c(O)cccc2CC1 | 64.1 | 8.7 | 84 | 215 | 10.4 | 7.9 | – | –
CN1CCc2ccccc2Cc2cc(N)c(O)cc2CC1 | 20.9 | 9.3 | 37.3 | – | 39.5 | 26.1 | 226 | –
CN1CCc2ccccc2Cc2c(ccc(O)c2Cl)CC1 | 6.8 | 0.46 | 0.99 | 1.88 | 1.6 | 0.13 | 0.98 | –
CN1CCc2cc(O)ccc2Cc2ccc(O)cc2CC1 | 3.3 | 2 | 58.7 | 342 | 0.54 | 19 | 1.68 | –
CN1CCc2ccccc2Cc2ccc(O)c(Cl)c2CC1 | 0.46 | 0.83 | 4 | 24.6 | 0.053 | 6.1 | 0.057 | 5.2
CN1CCc2ccccc2Cc2[nH]c3ccccc3c2CC1 | – | 1.9 | 44.7 | – | 12.7 | 19 | 7.5 | –
COc1c(Cl)cc2c(c1Cl)Cc1ccccc1CCN(C)CC2 | 34 | 25.3 | 210 | 415 | 59 | 2.5 | – | –

Reference: ChEMBL document CHEMBL1138197, “Dopamine/serotonin receptor ligands. 12(1): SAR studies on hexahydro-dibenz[d,g]azecines lead to 4-chloro-7-methyl-5,6,7,8,9,14-hexahydrodibenz[d,g]azecin-3-ol, the first picomolar D5-selective dopamine-receptor antagonist” (J Med Chem, 2006)
